The record followed here is article PMC9727182, “Identification of pharmacokinetic markers for safflower injection using a combination of system pharmacology, multicomponent pharmacokinetics, and quantitative proteomics study” (Frontiers in Pharmacology, 2022).

A short description of data set [1]: Multicomponent pharmacokinetics in rat plasma after i.v. safflower injection (SI). To be noted: for half-life / AUC(0-inf) / AUC(0-t) / Cmax / MRT inf / MRT last / Vd / clearance / concentration at 15 min: male, Sprague-Dawley, rat, plasma; for half-life / AUC(0-inf) / AUC(0-t) / Cmax / MRT inf / MRT last / Vd / clearance: iv; for detected mean maximum plasma concentration: rats, after administration of 4 ml/kg of SI; for concentration at 15 min: intravenous. On the procedure: The animal experiments were approved by the Animal Care and Use Committee of the College of Animal Science (College of Bee Science), Fujian Agriculture and Forestry University (Approval Number: PZCASFAFU21012). 250 ± 20 g of male Sprague-Dawley (SD) rats were provided by Lab Animal Center in Fujian Medical University (Fuzhou, China).
Ten rats were divided into three groups (Low dose group, n = 4; medium and high groups, n = 3, respectively). […] For each rat, 2 ml of physiological saline was supplemented after 30 min sampling via intraperitoneal injection. The plasma samples were obtained by centrifugation at 3,000 rpm for 10 min and stored at −20°C until analysis.
Clear supernatant (5 μl) was injected into HPLC-MS for bioanalysis.
The sample was separated on a RD-C18 column (4.6 mm × 50 mm, 3.5 μm, Zhongpu Develop, China). The mobile phase incudes water with 0.1% acetic acid (A) and acetonitrile (B). […] The column temperature, flow rate and injection volume were set at 30°C, 0.5 ml/min and 5 μl, respectively.
Non-compartmental model was used to calculate the PK parameters by DAS 3.0 software (Chinese Pharmacologic Society, Beijing, China). A single-tailed t-test was carried out in the study.

The test system of data set [2] is H9c2 cardiomyocytes injured by H2O2. The data set can be described thus: Protection of cardiomyocytes injured by H2O2 (MTT). Format: cell-based. On the procedure: H9c2 cardiomyocytes obtained from Cell Bank of the Chinese Academy of Sciences (Shanghai, China) were cultured in DMEM (high glucose) supplemented with 1% P/S and 15% FBS in 5% CO2 at 37°C. The cells were collected with 0.25% trypsin, followed by re-seeding in 96-well multiplates with a density of 5×10^3 cells per well. The cell experiments were grouped as follows: normal group, model group (H2O2), administration groups and positive control groups (N-Acetyl-L-cysteine, NAC). […] After that, cells were incubated with 0.5 mg/ml of MTT for 4 h under standard condition, followed by addition of 150 µl DMSO into every well. The cell supernatants were finally removed and the optical density (OD) was recorded at 570 nm using a microplate reader (Thermo Fisher Scientific, United States). The protection rate of the compounds on H9c2 cardiomyocytes was calculated as (OD valueadministration group (or NAC group)-OD valuemodel group)/(OD valuenormal group-OD valuemodel group) ×100%.

Data set [3] can be described thus: Stability in diluted SI at room temperature. Particulars: analyzed at 0, 2, 4, 8, 12, 24, and 48 h.
Data set [4] in a line: Stability of 6 compounds of SI in rat plasma. To be noted: for 10h in auto-sampler vials RE: extracted rat plasma; for 6h at room temperature RE / Freeze-thaw stability (three cycles) RE / Long-term stability (-80℃,15 days) RE: rat plasma. The source says: The LC-MS method was validated by linearity, limits of detection (LOD), limits of quantification (LOQ), precision, accuracy, extraction recovery, matrix effect and stability of the 6 ingredients in rat plasma. Calibration curves were plotted using weighted linear regression of the peak area ratio of analyte to the IS against the corresponding nominal concentration of the analyte. LOD and LOQ were defined as the detectable concentration at which the ratio of signal to noise was more than 3 and 10, respectively. Intra- and inter-day accuracy and precision were assessed by detecting quality control (QC) samples using five replicates of rat samples at three concentration levels on one or three validation days, respectively. Accuracy and precision were expressed by relative error (RE) and relative standard deviation (RSD), respectively. The extraction recovery and matrix effect of the 6 components at above-mentioned three concentration levels were determined. Stability was assessed under the condition of placing un-treated plasma samples at room temperature for 6 h, and extracted plasma samples in auto-sampler for 10 h, as well as placing plasma samples within freeze-thaw three cycles and at −80 °C for 15 days.

The subject of data set [5] is H9c2 cardiomyocytes injured by H2O2. Description: TMT quantitative proteomics of H2O2-injured cardiomyocytes. The data set is classed as cell-based. Particulars: 195 μM. On the procedure: The procedures for cell culture, group and administration are similar to those in “2.7. […] Briefly, the difference is that H9c2 cells were seeded and cultured in a culture flask with a bottom area of 25 cm^2 with a density 1×10^5 cells/ml. After treatment, about 3×10^7 cells per group were collected for the next quantitative proteomics investigation, which was done by Jingjie PTM Biolabs (Hangzhou, China). All the procedures for quantitative proteomics can be found in the section of “5. Quantitative proteomics” of the Supplementary Material.
The quantitative proteomics study was carried out according to our previous report ([Li et al., 2022]). Relative quantitative values of proteins in two samples were compared via t-test. […] The identified difference proteins between groups were subjected further to principal component analysis (PCA). […] The subcellular structure location was analyzed using these proteins as objectives.

The mark [6] stands for this setting: 1 h after administration (2 ml/kg of SI), preliminary test.
Where [7] appears, read: behind 15 min after i.v. low dose administration (1 ml/kg of SI).

Several values for one entry are separate records, joined by “and”; a condition that tells them apart may be missing. Equal values may be shown once.

A word on the half-life: it is the time needed for the level to fall by half in the phase considered. By AUC(0-inf) is commonly meant the area under the concentration-time curve extrapolated to infinity. Read a high AUC(0-inf) as high exposure. The AUC(0-t) is the area under the concentration-time curve up to a stated or last time point. A lower AUC(0-t) goes with low exposure. For orientation: Cmax means the peak of the concentration-time curve. A word on the MRT inf: it is the average time that molecules of a dose stay in the body. A word on the MRT last: it is the average time that molecules of a dose stay in the body. The Vd is the apparent volume that relates the amount in the body to the concentration in plasma or blood. Higher therefore signals wide distribution into tissue. One may read the clearance as the rate of elimination divided by the concentration. Low readings indicate a low capacity for elimination, high ones a high capacity for elimination. As to `O=C(O)[C@H]1O[C@@H](Oc2cc3oc(-c4ccc(O)cc4)cc(=O)c3c(O)c2O)[C@H](O)[C@@H](O)[C@@H]1O` [SCU, scutellarin], the “detection in rat plasma” value in data set [1] (setting [6]) is given as “can be detected”. For the same molecule, in data set [1] (setting [7]), the “detection in rat plasma” value is listed as “can’t be detected”. In data set [1], the half-life was not below 2.58 h; the “detected mean maximum plasma concentration” value is 0.327 μg/mL and 0.7 μM. In data set [1] (2 ml/kg), this molecule yielded a total exposure AUC(0-inf) of 105 ± 31.5 ng·h/mL, an AUC(0-t) of 89.8 ± 21 ng·h/mL, a Cmax of 162 ± 17.4 ng/mL and an MRT inf of 2.9 ± 2.42 h. For the same molecule, in data set [1] (2 ml/kg), the MRT last was 1.46 ± 0.64 h, the Vd is 0.05 ± 0.02 L/kg, the clearance was 0.167 mL/min/kg and the half-life was 2.58 ± 1.84 h. In data set [1] (4 ml/kg), the AUC(0-inf) stood at 358 ± 34 ng·h/mL, the area under the curve AUC(0-t) amounted to 306 ± 12.5 ng·h/mL, the Cmax stood at 327 ± 60 ng/mL and the MRT inf came to 2.96 ± 1.49 h. For the same molecule, in data set [1] (4 ml/kg), the MRT last came to 1.57 ± 0.68 h, the Vd is 0.03 ± 0.01 L/kg, the clearance is 0.167 mL/min/kg and the half-life was 2.84 ± 1.19 h. In addition, in data set [2] (0.7 μM, preliminary test at maximum detected plasma concentration), the protection entry was “absence of protection”. The “Stability RSD” value in data set [3] amounted to 4.42%. In data set [4] (spiked 40 ng/mL), the “10h in auto-sampler vials RE” value turned out to be 10.63%, the “6h at room temperature RE” value is on record as -6.50%, the “Freeze-thaw stability (three cycles) RE” value turned out to be 0.00% and the “Long-term stability (-80℃,15 days) RE” value is on record as 6.00%. In data set [4] (spiked 1000 ng/mL), the “10h in auto-sampler vials RE” value was 0.30%, the “6h at room temperature RE” value was -2.90%, the “Freeze-thaw stability (three cycles) RE” value was -4.00% and the “Long-term stability (-80℃,15 days) RE” value worked out at 2.80%. Moreover, in data set [4] (spiked 10000 ng/mL), the “10h in auto-sampler vials RE” value is on record as -1.48%, the “6h at room temperature RE” value is given as -2.06%, the “Freeze-thaw stability (three cycles) RE” value was -5.21% and the “Long-term stability (-80℃,15 days) RE” value is on record as -0.81%.
In the case of hydroxysafflor yellow A [HSYA], the “proteins significantly downregulated vs. M group” value in data set [5] (fold change ≤1/1.5, p <0.05) came out at 205 proteins. Also, in data set [5] (fold change ≥1.5, p <0.05), the “proteins significantly upregulated vs. M group” value is recorded as 148 proteins. Further, in data set [5] (vs. M group), the KEGG pathway regulation entry was “downregulated the ribosome pathway and upregulated the lysosome pathway”; the “changed protein expression located at the cytoplasm” value amounted to 41.64%; the “changed protein expression located at the nucleus” value is on record as 27.48%. Further, the “cell viability vs. model group” value in data set [2] (10 μM, pretreated 24 h, 250 μM H2O2 2 h) is recorded as “higher cell viability than the model group”. Moreover, in data set [2] (1, 5 and 10 μM), the “anti-H2O2 injury effect (protection rate)” value is “concentration-dependent”. Besides, the protection rate entry in data set [2] ([…] μM, preliminary test at maximum detected plasma concentration) is “about 26%”.
`O=Cc1ccc(O)cc1` [p-HBA, p-hydroxybenzaldehyde]: the “detection in rat plasma” value in data set [1] (setting [6]) is “can be detected”. In data set [1] (setting [7]), the “detection in rat plasma” value is “can’t be detected”. In data set [1] (2 ml/kg), this molecule registered an AUC(0-inf) of 23.4 ± 5.21 ng·h/mL, an AUC(0-t) of 20.1 ± 4.4 ng·h/mL, a maximum concentration (Cmax) of 44.7 ± 5.13 ng/mL and an MRT inf of 0.67 ± 0.11 h. In data set [1] (2 ml/kg), this molecule showed an MRT last of 0.43 ± 0.04 h, a volume of distribution (Vd) of 0.35 ± 0.04 L/kg, a clearance of 8.83 mL/min/kg and a half-life of 0.48 ± 0.11 h. In data set [1] (4 ml/kg), this molecule returned an AUC(0-inf) of 44 ± 45.2 ng·h/mL, an AUC(0-t) of 35.2 ± 31.1 ng·h/mL, a Cmax of 74.3 ± 2.52 ng/mL and a mean residence time MRT inf of 0.53 ± 0.53 h. Further, in data set [1] (4 ml/kg), the MRT last was 0.32 ± 0.25 h, the distribution volume (Vd) came to 0.34 ± 0.09 L/kg, the clearance is 16.5 mL/min/kg and the half-life is 0.39 ± 0.35 h. The “detected mean maximum plasma concentration” value in data set [1] is 0.074 μg/mL and 0.61 μM. Further, the protection result in data set [2] (0.61 μM, preliminary test at maximum detected plasma concentration) is “absence of protection”. Besides, the “Stability RSD” value in data set [3] worked out at 4.11%. Besides, in data set [4] (spiked 40 ng/mL), the “10h in auto-sampler vials RE” value is recorded as -2.50%, the “Freeze-thaw stability (three cycles) RE” value was 1.00% and the “Long-term stability (-80℃,15 days) RE” value came out at 14.50%. In addition, in data set [4] (spiked 400 ng/mL), the “10h in auto-sampler vials RE” value came out at 0.63%, the “6h at room temperature RE” value is -3.70%, the “Freeze-thaw stability (three cycles) RE” value is 4.05% and the “Long-term stability (-80℃,15 days) RE” value worked out at 0.45%. Besides, in data set [4] (spiked 10000 ng/mL), the “10h in auto-sampler vials RE” value was determined as 4.23%, the “6h at room temperature RE” value was -3.91%, the “Freeze-thaw stability (three cycles) RE” value is reported as -3.10% and the “Long-term stability (-80℃,15 days) RE” value was 3.02%.
For `Nc1ncnc2c1ncn2[C@@H]1O[C@H](CO)[C@@H](O)[C@H]1O` [adenosine], the concentration at 15 min in data set [1] (2 ml/kg) was less than 0.5 ng/mL. The “Stability RSD” value in data set [3] is recorded as 2.74%.
In data set [1] (2 ml/kg), `Nc1nc2c(ncn2[C@@H]2O[C@H](CO)[C@@H](O)[C@H]2O)c(=O)[nH]1` [guanosine] showed a concentration at 15 min of less than 0.5 ng/mL.
In turn, `CC(=O)N[C@@H](CS)C(=O)O` [NAC, N-Acetyl-L-cysteine, reference compound] had a protection rate in data set [2] (1 mM, positive drug) of 6.45%.
Take `O=C(O)/C=C/c1ccccc1` [trans-cinnamic acid]: the “Stability RSD” value in data set [3] was determined as 1.86%.
On to `O=c1ccn([C@@H]2O[C@H](CO)[C@@H](O)[C@H]2O)c(=O)[nH]1` [uridine], for which the concentration at 15 min in data set [1] (2 ml/kg) was less than 0.5 ng/mL. Also, the “Stability RSD” value in data set [3] was 2.81%.
Take `Nc1ccn([C@@H]2O[C@H](CO)[C@@H](O)[C@H]2O)c(=O)n1` [cytidine]: the concentration at 15 min in data set [1] (2 ml/kg) is less than 0.5 ng/mL. Further, the “Stability RSD” value in data set [3] was found to be 1.85%.
On to `O=c1c(O)c(-c2ccc(O)cc2)oc2cc(O)cc(O)c12` [kaempferol], for which, in data set [1] (2 ml/kg), the concentration at 15 min is less than 0.5 ng/mL.
In data set [1] (2 ml/kg), `O=c1c(O)c(-c2ccc(O)c(O)c2)oc2cc(O)cc(O)c12` [quercetin] displayed a concentration at 15 min of less than 0.5 ng/mL. For the same molecule, the “Stability RSD” value in data set [3] is reported as 2.51%.
